Test results as given in the kinase profiling compilation of Christmann-Franck et al. (2016).

Assays:
Experiment in all cases: radiometric filter-binding kinase assay
TEK (human) = TEK (human) (UniProt Q02763)
PDGFRA (human) = PDGFRA (human) (UniProt P16234)
CSNK1G2 (human) = CSNK1G2 (human) (UniProt P78368)
TSSK1B (human) = TSSK1B (human) (UniProt Q9BXA7)
ULK2 (human) = ULK2 (human) (UniProt Q8IYT8)
MAP4K3 (human) = MAP4K3 (human) (UniProt Q8IVH8)
NUAK1 (human) = NUAK1 (human) (UniProt O60285)
DDR2 (human) = DDR2 (human) (UniProt Q16832)
TTBK1 (human) = TTBK1 (human) (UniProt Q5TCY1)
STK33 (human) = STK33 (human) (UniProt Q9BYT3)
ULK1 (human) = ULK1 (human) (UniProt O75385)
SIK3 (human) = SIK3 (human) (UniProt Q9Y2K2)
ZAP70 (human) = ZAP70 (human) (UniProt P43403)
ABL1 (human) = ABL1 (human) (UniProt P00519)
TESK1 (human) = TESK1 (human) (UniProt Q15569)
STK24 (human) = STK24 (human) (UniProt Q9Y6E0)
MAP4K5 (human) = MAP4K5 (human) (UniProt Q9Y4K4)
PTK6 (human) = PTK6 (human) (UniProt Q13882)
TTBK2 (human) = TTBK2 (human) (UniProt Q6IQ55)
IRAK1 (human) = IRAK1 (human) (UniProt P51617)
[1] = tested on: OXSR1 (human), O95747 [T185E]
TLK1 (human) = TLK1 (human) (UniProt Q9UKI8)
SIK2 (human) = SIK2 (human) (UniProt Q9H0K1)
PRKCG (human) = PRKCG (human) (UniProt P05129)
EIF2AK3 (human) = EIF2AK3 (human) (UniProt Q9NZJ5)
MAP2K6 (human) = MAP2K6 (human) (UniProt P52564)
[2] = target: PRKAA1 PRKAB2 PRKAG1 (human) (UniProt O43741+Q13131+P54619)
CDK9 CCNT1 (human) = CDK9 CCNT1 (human) (UniProt P50750+O60563)
STK16 (human) = STK16 (human) (UniProt O75716)
WNK1 (human) = WNK1 (human) (UniProt Q9H4A3)

PTK6 (human), sequence (Q13882 whole entry, looked up): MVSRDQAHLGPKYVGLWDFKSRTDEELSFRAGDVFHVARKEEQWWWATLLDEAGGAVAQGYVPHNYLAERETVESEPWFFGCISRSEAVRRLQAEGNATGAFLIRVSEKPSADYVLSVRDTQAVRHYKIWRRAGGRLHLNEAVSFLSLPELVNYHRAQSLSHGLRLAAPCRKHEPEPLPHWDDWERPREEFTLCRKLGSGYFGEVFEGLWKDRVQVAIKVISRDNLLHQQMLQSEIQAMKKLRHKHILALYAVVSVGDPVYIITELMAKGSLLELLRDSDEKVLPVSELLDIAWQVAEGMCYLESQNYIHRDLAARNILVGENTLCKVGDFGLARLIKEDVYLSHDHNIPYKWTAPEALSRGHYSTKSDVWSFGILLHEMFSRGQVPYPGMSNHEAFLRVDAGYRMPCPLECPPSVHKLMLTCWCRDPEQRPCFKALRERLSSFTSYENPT
EIF2AK3 (human), sequence (Q9NZJ5 whole entry, looked up): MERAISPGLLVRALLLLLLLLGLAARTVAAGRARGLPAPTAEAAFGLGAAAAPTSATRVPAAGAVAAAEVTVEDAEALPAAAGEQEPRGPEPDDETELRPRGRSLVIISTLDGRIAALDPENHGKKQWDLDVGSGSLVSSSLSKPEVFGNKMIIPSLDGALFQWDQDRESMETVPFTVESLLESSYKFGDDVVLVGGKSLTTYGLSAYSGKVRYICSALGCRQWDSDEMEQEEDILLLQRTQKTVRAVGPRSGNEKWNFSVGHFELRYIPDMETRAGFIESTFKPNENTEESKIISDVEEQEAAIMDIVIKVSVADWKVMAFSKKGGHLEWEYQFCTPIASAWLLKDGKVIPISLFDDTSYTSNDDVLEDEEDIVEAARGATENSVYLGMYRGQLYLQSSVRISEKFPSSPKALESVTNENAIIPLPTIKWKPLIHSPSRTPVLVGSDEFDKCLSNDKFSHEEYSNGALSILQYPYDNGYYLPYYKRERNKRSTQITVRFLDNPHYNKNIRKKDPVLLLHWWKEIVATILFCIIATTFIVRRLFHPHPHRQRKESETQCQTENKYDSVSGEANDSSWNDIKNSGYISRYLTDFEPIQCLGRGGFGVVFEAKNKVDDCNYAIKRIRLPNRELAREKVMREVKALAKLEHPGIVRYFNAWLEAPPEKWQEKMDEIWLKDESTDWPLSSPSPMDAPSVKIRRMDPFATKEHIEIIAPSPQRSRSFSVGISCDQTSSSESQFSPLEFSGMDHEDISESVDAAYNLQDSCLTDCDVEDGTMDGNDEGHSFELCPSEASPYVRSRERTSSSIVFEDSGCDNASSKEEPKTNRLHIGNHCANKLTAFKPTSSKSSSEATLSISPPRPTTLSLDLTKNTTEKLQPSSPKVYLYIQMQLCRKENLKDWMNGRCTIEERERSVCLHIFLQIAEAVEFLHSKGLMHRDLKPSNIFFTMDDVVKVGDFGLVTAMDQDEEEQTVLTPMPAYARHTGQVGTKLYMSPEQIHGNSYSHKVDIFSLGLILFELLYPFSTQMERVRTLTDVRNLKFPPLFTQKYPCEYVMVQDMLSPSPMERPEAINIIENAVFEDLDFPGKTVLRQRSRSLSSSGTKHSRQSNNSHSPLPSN
STK24 (human), sequence (Q9Y6E0 whole entry, looked up): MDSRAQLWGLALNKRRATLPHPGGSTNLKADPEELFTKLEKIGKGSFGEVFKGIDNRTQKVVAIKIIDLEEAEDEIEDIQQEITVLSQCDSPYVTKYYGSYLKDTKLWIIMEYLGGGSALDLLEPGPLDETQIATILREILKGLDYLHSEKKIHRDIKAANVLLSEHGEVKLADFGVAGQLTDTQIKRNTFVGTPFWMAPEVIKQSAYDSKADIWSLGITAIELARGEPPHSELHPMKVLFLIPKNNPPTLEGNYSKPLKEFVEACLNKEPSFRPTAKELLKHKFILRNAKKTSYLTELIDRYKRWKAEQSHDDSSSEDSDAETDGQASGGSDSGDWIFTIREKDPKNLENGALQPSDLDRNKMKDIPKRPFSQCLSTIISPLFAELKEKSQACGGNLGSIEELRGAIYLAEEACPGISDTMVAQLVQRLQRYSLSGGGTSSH
ABL1 (human), sequence (P00519 whole entry, looked up): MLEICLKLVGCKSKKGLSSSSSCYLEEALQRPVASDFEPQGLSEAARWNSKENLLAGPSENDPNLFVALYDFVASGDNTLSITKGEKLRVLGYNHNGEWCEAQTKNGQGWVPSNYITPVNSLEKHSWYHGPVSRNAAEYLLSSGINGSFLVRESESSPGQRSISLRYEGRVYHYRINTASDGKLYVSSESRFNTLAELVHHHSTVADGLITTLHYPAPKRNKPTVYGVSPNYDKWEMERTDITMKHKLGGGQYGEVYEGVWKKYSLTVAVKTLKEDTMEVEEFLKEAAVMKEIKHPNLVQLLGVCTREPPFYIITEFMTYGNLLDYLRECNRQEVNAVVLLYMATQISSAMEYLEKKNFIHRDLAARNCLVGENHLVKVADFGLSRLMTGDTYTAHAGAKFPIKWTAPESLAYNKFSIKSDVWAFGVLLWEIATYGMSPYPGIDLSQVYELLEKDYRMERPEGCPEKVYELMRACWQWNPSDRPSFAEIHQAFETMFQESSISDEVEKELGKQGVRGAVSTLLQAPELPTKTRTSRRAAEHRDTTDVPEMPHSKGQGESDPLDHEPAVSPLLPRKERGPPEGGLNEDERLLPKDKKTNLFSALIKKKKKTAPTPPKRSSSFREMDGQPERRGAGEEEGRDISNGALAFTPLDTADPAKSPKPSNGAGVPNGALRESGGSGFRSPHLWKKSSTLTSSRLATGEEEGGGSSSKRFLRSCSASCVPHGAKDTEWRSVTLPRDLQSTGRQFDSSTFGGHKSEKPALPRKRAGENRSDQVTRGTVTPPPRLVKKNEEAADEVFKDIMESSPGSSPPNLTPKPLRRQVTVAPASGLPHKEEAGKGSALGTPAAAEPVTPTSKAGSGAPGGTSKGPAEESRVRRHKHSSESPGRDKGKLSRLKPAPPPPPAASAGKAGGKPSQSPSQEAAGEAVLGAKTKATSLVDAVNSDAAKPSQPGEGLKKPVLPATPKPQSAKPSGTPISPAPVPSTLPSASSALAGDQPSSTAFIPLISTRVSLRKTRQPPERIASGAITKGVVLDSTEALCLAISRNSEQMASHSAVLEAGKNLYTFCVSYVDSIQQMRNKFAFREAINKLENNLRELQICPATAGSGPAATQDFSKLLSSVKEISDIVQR
TSSK1B (human), sequence (Q9BXA7 whole entry, looked up): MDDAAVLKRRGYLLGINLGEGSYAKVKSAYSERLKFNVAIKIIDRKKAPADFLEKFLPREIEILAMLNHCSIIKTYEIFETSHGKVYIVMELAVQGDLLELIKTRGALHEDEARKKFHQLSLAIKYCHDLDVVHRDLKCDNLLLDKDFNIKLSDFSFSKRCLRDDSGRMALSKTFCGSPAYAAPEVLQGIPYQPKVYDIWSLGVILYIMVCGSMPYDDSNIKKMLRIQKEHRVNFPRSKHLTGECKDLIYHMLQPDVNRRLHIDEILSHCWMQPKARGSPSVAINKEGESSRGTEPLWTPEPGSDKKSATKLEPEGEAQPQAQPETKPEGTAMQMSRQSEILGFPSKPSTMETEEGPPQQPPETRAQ
TLK1 (human), sequence (Q9UKI8 whole entry, looked up): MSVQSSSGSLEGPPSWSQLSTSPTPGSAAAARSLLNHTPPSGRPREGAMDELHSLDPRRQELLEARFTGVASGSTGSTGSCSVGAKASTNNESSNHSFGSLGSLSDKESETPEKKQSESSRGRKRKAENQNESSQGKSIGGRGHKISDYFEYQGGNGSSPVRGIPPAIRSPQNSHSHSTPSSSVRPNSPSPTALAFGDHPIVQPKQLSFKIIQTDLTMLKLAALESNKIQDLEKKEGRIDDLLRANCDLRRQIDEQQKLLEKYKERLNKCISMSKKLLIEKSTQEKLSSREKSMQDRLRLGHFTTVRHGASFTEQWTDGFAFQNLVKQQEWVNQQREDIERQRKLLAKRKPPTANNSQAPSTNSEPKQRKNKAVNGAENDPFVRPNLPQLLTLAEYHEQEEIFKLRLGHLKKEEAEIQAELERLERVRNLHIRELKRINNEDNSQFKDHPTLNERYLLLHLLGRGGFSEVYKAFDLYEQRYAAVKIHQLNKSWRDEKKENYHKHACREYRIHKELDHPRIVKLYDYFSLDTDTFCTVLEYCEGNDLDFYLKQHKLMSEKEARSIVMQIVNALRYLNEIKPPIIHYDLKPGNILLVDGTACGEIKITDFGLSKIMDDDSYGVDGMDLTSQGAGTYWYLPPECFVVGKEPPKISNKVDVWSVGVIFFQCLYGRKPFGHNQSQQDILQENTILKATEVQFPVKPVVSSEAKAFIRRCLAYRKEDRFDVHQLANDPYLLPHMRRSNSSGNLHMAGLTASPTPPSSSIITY
NUAK1 (human), sequence (O60285 whole entry, looked up): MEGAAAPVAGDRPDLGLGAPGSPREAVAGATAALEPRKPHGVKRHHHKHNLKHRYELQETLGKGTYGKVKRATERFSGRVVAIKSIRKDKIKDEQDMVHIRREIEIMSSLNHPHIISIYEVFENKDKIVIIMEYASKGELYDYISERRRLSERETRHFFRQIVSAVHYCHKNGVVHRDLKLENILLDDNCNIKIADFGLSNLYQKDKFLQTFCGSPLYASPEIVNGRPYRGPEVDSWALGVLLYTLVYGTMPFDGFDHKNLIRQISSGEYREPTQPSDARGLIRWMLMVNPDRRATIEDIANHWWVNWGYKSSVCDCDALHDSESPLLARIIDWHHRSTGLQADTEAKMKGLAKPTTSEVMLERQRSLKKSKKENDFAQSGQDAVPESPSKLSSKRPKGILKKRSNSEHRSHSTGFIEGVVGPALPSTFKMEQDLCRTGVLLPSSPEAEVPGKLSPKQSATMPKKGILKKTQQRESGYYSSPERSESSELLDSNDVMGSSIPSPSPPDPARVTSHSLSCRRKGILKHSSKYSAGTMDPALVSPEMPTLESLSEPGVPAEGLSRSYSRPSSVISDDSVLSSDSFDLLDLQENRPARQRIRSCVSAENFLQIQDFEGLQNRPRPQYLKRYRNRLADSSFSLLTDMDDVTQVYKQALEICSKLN

SMILES: Cc1ccc(-c2ccc3c(ccc4sc5c(c43)NC[C@@H](C)NC5=O)n2)cn1
- residual activity (TEK (human); compound 0.1 µM): 105%
- residual activity (TEK (human); compound 1.0 µM): 86%
- residual activity (TEK (human); compound 10.0 µM): 88%
- residual activity (PDGFRA (human); compound 0.1 µM): 104%
- residual activity (PDGFRA (human); compound 1.0 µM): 108%
- residual activity (CSNK1G2 (human); compound 0.1 µM): 123%
- residual activity (CSNK1G2 (human); compound 1.0 µM): 112%
- residual activity (CSNK1G2 (human); compound 10.0 µM): 102%
- residual activity (TSSK1B (human); compound 0.1 µM): 97%
- residual activity (TSSK1B (human); compound 1.0 µM): 85%
- residual activity (TSSK1B (human); compound 10.0 µM): 89%
- residual activity (ULK2 (human); compound 0.1 µM): 109%
- residual activity (ULK2 (human); compound 10.0 µM): 54%
- residual activity (MAP4K3 (human); compound 0.1 µM): 98%
- residual activity (MAP4K3 (human); compound 1.0 µM): 72%
- residual activity (MAP4K3 (human); compound 10.0 µM): 41%
- residual activity (NUAK1 (human); compound 1.0 µM): 102%
- residual activity (NUAK1 (human); compound 10.0 µM): 58%
- residual activity (DDR2 (human); compound 0.1 µM): 105%
- residual activity (DDR2 (human); compound 1.0 µM): 101%
- residual activity (DDR2 (human); compound 10.0 µM): 91%
- residual activity (TTBK1 (human); compound 0.1 µM): 103%
- residual activity (TTBK1 (human); compound 1.0 µM): 104%
- residual activity (TTBK1 (human); compound 10.0 µM): 96%
- residual activity (STK33 (human); compound 0.1 µM): 105%
- residual activity (STK33 (human); compound 1.0 µM): 83%
- residual activity (STK33 (human); compound 10.0 µM): 38%
- residual activity (ULK1 (human); compound 0.1 µM): 115%
- residual activity (ULK1 (human); compound 1.0 µM): 89%
- residual activity (ULK1 (human); compound 10.0 µM): 75%
- residual activity (SIK3 (human); compound 0.1 µM): 98%
- residual activity (SIK3 (human); compound 1.0 µM): 99%
- residual activity (SIK3 (human); compound 10.0 µM): 73%
- residual activity (ZAP70 (human); compound 0.1 µM): 93%
- residual activity (ZAP70 (human); compound 1.0 µM): 100%
- residual activity (ABL1 (human); compound 0.1 µM): 120%
- residual activity (ABL1 (human); compound 1.0 µM): 113%
- residual activity (ABL1 (human); compound 10.0 µM): 76%
- residual activity (TESK1 (human); compound 0.1 µM): 112%
- residual activity (TESK1 (human); compound 1.0 µM): 111%
- residual activity (TESK1 (human); compound 10.0 µM): 101%
- residual activity (STK24 (human); compound 1.0 µM): 109%
- residual activity (MAP4K5 (human); compound 0.1 µM): 111%
- residual activity (MAP4K5 (human); compound 1.0 µM): 108%
- residual activity (MAP4K5 (human); compound 10.0 µM): 61%
- residual activity (PTK6 (human); compound 0.1 µM): 121%
- residual activity (PTK6 (human); compound 1.0 µM): 94%
- residual activity (PTK6 (human); compound 10.0 µM): 92%
- residual activity (TTBK2 (human); compound 0.1 µM): 122%
- residual activity (TTBK2 (human); compound 1.0 µM): 122%
- residual activity (TTBK2 (human); compound 10.0 µM): 103%
- residual activity (IRAK1 (human); compound 0.1 µM): 104%
- residual activity (IRAK1 (human); compound 1.0 µM): 77%
- residual activity (IRAK1 (human); compound 10.0 µM): 27%
- residual activity ([1]; compound 0.1 µM): 113%
- residual activity ([1]; compound 1.0 µM): 112%
- residual activity ([1]; compound 10.0 µM): 118%
- residual activity (TLK1 (human); compound 0.1 µM): 113%
- residual activity (TLK1 (human); compound 1.0 µM): 107%
- residual activity (TLK1 (human); compound 10.0 µM): 100%
- residual activity (SIK2 (human); compound 0.1 µM): 99%
- residual activity (SIK2 (human); compound 1.0 µM): 86%
- residual activity (SIK2 (human); compound 10.0 µM): 77%
- residual activity (PRKCG (human); compound 0.1 µM): 118%
- residual activity (PRKCG (human); compound 1.0 µM): 110%
- residual activity (PRKCG (human); compound 10.0 µM): 101%
- residual activity (EIF2AK3 (human); compound 0.1 µM): 114%
- residual activity (EIF2AK3 (human); compound 1.0 µM): 101%
- residual activity (EIF2AK3 (human); compound 10.0 µM): 73%
- residual activity (MAP2K6 (human); compound 0.1 µM): 95%
- residual activity (MAP2K6 (human); compound 10.0 µM): 91%
- residual activity ([2]; compound 0.1 µM): 68%
- residual activity ([2]; compound 1.0 µM): 21%
- residual activity ([2]; compound 10.0 µM): 6%
- residual activity (CDK9 CCNT1 (human); compound 0.1 µM): 109%
- residual activity (CDK9 CCNT1 (human); compound 1.0 µM): 96%
- residual activity (CDK9 CCNT1 (human); compound 10.0 µM): 51%
- residual activity (STK16 (human); compound 0.1 µM): 117%
- residual activity (STK16 (human); compound 1.0 µM): 118%
- residual activity (STK16 (human); compound 10.0 µM): 105%
- residual activity (WNK1 (human); compound 0.1 µM): 113%
- residual activity (WNK1 (human); compound 1.0 µM): 108%
- residual activity (WNK1 (human); compound 10.0 µM): 119%

SMILES: COc1cc(O)c2c(c1)[C@H]1OC1C[C@H](O)[C@H](O)C(=O)/C=C\C[C@H](C)OC2=O (some centres not stated)
- residual activity (TEK (human); compound 0.01 µM): 122%
- residual activity (TEK (human); compound 0.1 µM): 101%
- residual activity (TEK (human); compound 1.0 µM): 122%
- residual activity (CSNK1G2 (human); compound 0.01 µM): 100%
- residual activity (CSNK1G2 (human); compound 0.1 µM): 100%
- residual activity (CSNK1G2 (human); compound 1.0 µM): 109%
- residual activity (TSSK1B (human); compound 0.01 µM): 112%
- residual activity (TSSK1B (human); compound 0.1 µM): 110%
- residual activity (TSSK1B (human); compound 1.0 µM): 99%
- residual activity (ULK2 (human); compound 0.01 µM): 94%
- residual activity (ULK2 (human); compound 0.1 µM): 96%
- residual activity (NUAK1 (human); compound 0.01 µM): 93%
- residual activity (NUAK1 (human); compound 0.1 µM): 99%
- residual activity (NUAK1 (human); compound 1.0 µM): 105%
- residual activity (DDR2 (human); compound 0.01 µM): 91%
- residual activity (DDR2 (human); compound 0.1 µM): 113%
- residual activity (TTBK1 (human); compound 0.01 µM): 89%
- residual activity (TTBK1 (human); compound 0.1 µM): 82%
- residual activity (STK33 (human); compound 0.01 µM): 113%
- residual activity (STK33 (human); compound 0.1 µM): 105%
- residual activity (STK33 (human); compound 1.0 µM): 113%
- residual activity (ULK1 (human); compound 0.01 µM): 91%
- residual activity (ULK1 (human); compound 0.1 µM): 88%
- residual activity (ULK1 (human); compound 1.0 µM): 92%
- residual activity (SIK3 (human); compound 0.01 µM): 102%
- residual activity (SIK3 (human); compound 0.1 µM): 93%
- residual activity (SIK3 (human); compound 1.0 µM): 94%
- residual activity (ZAP70 (human); compound 0.1 µM): 101%
- residual activity (ZAP70 (human); compound 1.0 µM): 103%
- residual activity (ABL1 (human); compound 0.01 µM): 96%
- residual activity (ABL1 (human); compound 0.1 µM): 97%
- residual activity (ABL1 (human); compound 1.0 µM): 105%
- residual activity (TESK1 (human); compound 0.1 µM): 107%
- residual activity (TESK1 (human); compound 1.0 µM): 92%
- residual activity (STK24 (human); compound 0.01 µM): 106%
- residual activity (STK24 (human); compound 0.1 µM): 104%
- residual activity (STK24 (human); compound 1.0 µM): 114%
- residual activity (PTK6 (human); compound 0.01 µM): 101%
- residual activity (PTK6 (human); compound 1.0 µM): 48%
- residual activity (IRAK1 (human); compound 0.01 µM): 97%
- residual activity (IRAK1 (human); compound 0.1 µM): 97%
- residual activity ([1]; compound 0.01 µM): 104%
- residual activity ([1]; compound 0.1 µM): 99%
- residual activity (TLK1 (human); compound 0.01 µM): 95%
- residual activity (TLK1 (human); compound 0.1 µM): 101%
- residual activity (SIK2 (human); compound 0.01 µM): 106%
- residual activity (SIK2 (human); compound 0.1 µM): 107%
- residual activity (SIK2 (human); compound 1.0 µM): 88%
- residual activity (PRKCG (human); compound 0.01 µM): 103%
- residual activity (PRKCG (human); compound 0.1 µM): 109%
- residual activity (PRKCG (human); compound 1.0 µM): 89%
- residual activity (EIF2AK3 (human); compound 0.01 µM): 105%
- residual activity (EIF2AK3 (human); compound 0.1 µM): 92%
- residual activity (MAP2K6 (human); compound 0.01 µM): 59%
- residual activity (MAP2K6 (human); compound 0.1 µM): 21%
- residual activity (MAP2K6 (human); compound 1.0 µM): 20%
- residual activity (CDK9 CCNT1 (human); compound 0.01 µM): 97%
- residual activity (CDK9 CCNT1 (human); compound 0.1 µM): 117%
- residual activity (CDK9 CCNT1 (human); compound 1.0 µM): 111%
- residual activity (STK16 (human); compound 0.01 µM): 94%
- residual activity (STK16 (human); compound 1.0 µM): 102%
- residual activity (WNK1 (human); compound 0.01 µM): 94%
- residual activity (WNK1 (human); compound 0.1 µM): 107%
- residual activity (WNK1 (human); compound 1.0 µM): 106%
